{"source": "patent US20160222014A1", "about": "“COMPOUNDS FOR REGULATING FAK AND/OR SRC PATHWAYS” (ASANA BIOSCIENCES, LLC, priority 2013, published 2016)", "data": [{"target": "T1, recombinant human FAK1 (Homo sapiens, UniProt Q05397)", "T1 construct": "fused on or other part: N-terminal 6xHis tag", "T1 sequence (Q05397 422-680 limits assumed)": "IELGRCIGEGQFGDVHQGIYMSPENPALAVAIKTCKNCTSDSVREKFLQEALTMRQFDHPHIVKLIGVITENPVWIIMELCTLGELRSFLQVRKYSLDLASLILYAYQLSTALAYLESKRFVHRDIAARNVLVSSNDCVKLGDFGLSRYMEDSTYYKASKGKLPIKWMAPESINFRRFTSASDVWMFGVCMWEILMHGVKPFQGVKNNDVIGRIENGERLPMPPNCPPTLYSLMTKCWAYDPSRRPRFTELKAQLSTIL", "assay": "FAK1 HTRF assay", "assay_type": "biochemical", "procedure": "Active FAK1 was prepared for use in the Homogeneous Time-Resolved Fluorescence (HTRF) assay. Briefly, N-terminal 6 His tagged recombinant human FAK1, from residue 692-end (GenBank accession no. L13616) was expressed by Bacculovirus in sf9 cells. […] A 1.6 mg/mL (45 μM) stock was used in the HTRF assay at a final concentration of 10 nM.\nGastrin precursor (tyr87) biotinylated peptide which contains the residues surrounding tyrosine 87 (EEAY*GWM) of gastrin precursor was obtained (Cell Signaling Tech, Item no. 1310, Lot 7). The peptide was provided at a stock concentration of 6 μM, and used a final concentration of 0.5 μM in the HTRF assay.\n10 mM stock in 100 μL Enzyme assay buffer pH7.4 was prepared freshly and used at a final concentration of 10 μM in the assay.\nPowders were dissolved in 100% DMSO to a final stock concentration of 10 mM. The volume needed (in μL) to add for 10 mM=mg powder is 10^5/MW of compound. The final compound concentration in the assay plate started at 10 μM.\nPfizer FAK inhibitor PF-562271 (N-methyl-N-(3-(((2-((2-oxoindolin-5-yl)amino)-5-(trifluoromethyl)pyrimidin-4-yl)amino)methyl)pyridin-2-yl)methanesulfonamide) was prepared as per the reported procedure from US Patent Publication No. 2005/256145A1.\nStreptavidin-Allophycocyanin was obtained (Prozyme, Cat. No. PJ25S. SA-APC was provided at a stock concentration of 2.06 mg/mL, where APC concentration was 11.6 μM and the streptavidin concentration was 15.5 μM. SA-APC was used at a final concentration of 12 nM in the assay (based on streptavidin concentration).\nThis reagent was obtained from Perkin ElmerAD0068. Europium-W1024-PT-66 Anti Phospho Tyrosine Ab is a monoclonal IgG1 that recognizes phospho tyrosine peptide. 100 μg/mL stock was used at a final concentration of 0.1 nM in the assay.\n• 1. The compound dilutions were made by TECAN liquid handler as per the scheme in FIG. 1. • 2. 16 μL of diluted compound was added to each well of the assay plate using TECAN liquid handler. • 3. 20 μL of substrate mix (biotinylated gastrin precursor) was added into each well of the assay plate manually. • 4. 10 μL of enzyme mix (FAK1) was added to each well except mins. • 5. The plate was incubated at rt for 45 min with shaking. • 6. The HTRF mix was prepared and 75 μL was added to the HTRF plate. • 7. After the incubation was over, 10 μL of the mixture was transferred to the HTRF assay plate and incubated for 45 min at rt with shaking. • 8. The readings were taken in Pherastar in HTRF mode (ext 337 nm, em 665 & 620 nm) • 9. The results were analyzed using Graphpad Prism® software after calculation the z factor signal window and % inhibition. • 10. The IC50 was calculated.", "units": {"IC50": "nM"}, "values": [{"smiles": "COc1cc(Nc2cc3c(ccn3Cc3cccnc3)cn2)cc(OC)c1OC", "note": "[Example 6]", "IC50": "> 1000"}, {"smiles": "O=S(=O)(c1ccc(Nc2cc3c(ccn3Cc3cccnc3)cn2)cc1)C(F)F", "note": "[Example 8]", "IC50": "> 1000"}, {"smiles": "O=S(=O)(c1ccc(Nc2ncc3ccn(Cc4ccccc4OC(F)F)c3n2)cc1)C(F)F", "note": "[Example 9]", "IC50": "> 1000"}, {"smiles": "CSc1cccc(Nc2ncc3cnn(Cc4cccnc4)c3n2)c1", "note": "[Example 10]", "IC50": "> 1000"}, {"smiles": "CSc1cccc(Nc2cc3c(ccn3Cc3cccnc3)cn2)c1", "note": "[Example 13]", "IC50": "> 1000"}, {"smiles": "O=C1CCc2cc(Nc3ncc4cnn(Cc5cccnc5)c4n3)ccc2N1", "note": "[Example 14]", "IC50": "> 1000"}, {"smiles": "c1cncc(Cn2ccc3cnc(Nc4ccc5ncsc5c4)cc32)c1", "note": "[Example 15]", "IC50": "> 1000"}, {"smiles": "FC(F)(F)c1cccc(Nc2cc3c(ccn3Cc3cccnc3)cn2)c1", "note": "[Example 16]", "IC50": "> 1000"}, {"smiles": "O=S(=O)(c1ccc(Nc2ncc3ccn(Cc4cccnc4)c3n2)cc1)C(F)F", "note": "[Example 17]", "IC50": "> 1000"}, {"smiles": "O=S(=O)(c1ccc(Nc2cc3c(ccn3Cc3ccccc3OC(F)F)cn2)cc1)C(F)F", "note": "[Example 19]", "IC50": "> 1000"}, {"smiles": "CN(c1ncccc1Cn1ccc2cnc(Nc3ccc(C#N)nc3)cc21)S(C)(=O)=O", "note": "[Example 22]", "IC50": "> 1000"}, {"smiles": "CN(c1ncccc1Cn1ccc2cnc(Nc3ccc(S(=O)(=O)C(F)F)cc3)cc21)S(C)(=O)=O", "note": "[Example 25]", "IC50": "> 1000"}, {"smiles": "CC(=O)Nc1cccc(Nc2cc3c(ccn3-c3ccccn3)cn2)c1", "note": "[Example 37]", "IC50": "> 1000"}, {"smiles": "O=C1CCc2cc(Nc3ncc4ccn(S(=O)(=O)c5ccc(OC(F)(F)F)cc5)c4n3)ccc2N1", "note": "[Example 41]", "IC50": "> 1000"}, {"smiles": "CC(=O)Nc1cccc(Nc2ncc3ccn(S(=O)(=O)c4ccc(OC(F)(F)F)cc4)c3n2)c1", "note": "[Example 44]", "IC50": "> 1000"}, {"smiles": "CC(=O)Nc1cccc(Nc2cc3c(ccn3S(=O)(=O)c3ccc(OC(F)(F)F)cc3)cn2)c1", "note": "[Example 46]", "IC50": "> 1000"}, {"smiles": "CC(=O)Nc1ccc(Nc2cc3c(ccn3S(=O)(=O)c3ccc(OC(F)(F)F)cc3)cn2)cc1", "note": "[Example 47]", "IC50": "> 1000"}, {"smiles": "O=C1CCc2cc(Nc3cc4c(ccn4S(=O)(=O)c4ccc(OC(F)(F)F)cc4)cn3)ccc2N1", "note": "[Example 48]", "IC50": "> 1000"}, {"smiles": "O=S(=O)(c1ccc(OC(F)(F)F)cc1)n1ccc2cnc(Nc3ccc4ncsc4c3)cc21", "note": "[Example 49]", "IC50": "> 1000"}, {"smiles": "CS(=O)(=O)c1ccc(Nc2cc3c(ccn3S(=O)(=O)c3cccc(OC(F)(F)F)c3)cn2)cc1", "note": "[Example 51]", "IC50": "> 1000"}, {"smiles": "COc1ccc(Nc2cc3c(ccn3S(=O)(=O)c3cccc(OC(F)(F)F)c3)cn2)cc1", "note": "[Example 53]", "IC50": "> 1000"}, {"smiles": "CS(=O)(=O)c1ccc(Nc2cc3c(ccn3S(=O)(=O)c3ccccc3OC(F)(F)F)cn2)cc1", "note": "[Example 57]", "IC50": "> 1000"}, {"smiles": "CC(=O)Nc1cccc(Nc2cc3nn(Cc4ccccc4OC(F)F)cc3cn2)c1", "note": "[Example 63]", "IC50": "> 1000"}, {"smiles": "O=C1CCc2cc(Nc3cc4nn(Cc5ccccc5OC(F)F)cc4cn3)ccc2N1", "note": "[Example 67]", "IC50": "> 1000"}, {"smiles": "CC(=O)Nc1cccc(Nc2cc3c(cn2)c(C)nn3Cc2cccnc2N(C)S(C)(=O)=O)c1", "note": "[Example 68]", "IC50": "> 1000"}, {"smiles": "CC(=O)Nc1ccc(Nc2cc3c(cn2)c(C)nn3Cc2cccnc2N(C)S(C)(=O)=O)nc1", "note": "[Example 70]", "IC50": "> 1000"}, {"smiles": "CC(=O)Nc1ccccc1Nc1ncc2ccn(Cc3cccnc3N(C)S(C)(=O)=O)c2n1", "note": "[Example 71]", "IC50": "> 1000"}, {"smiles": "CC(=O)Nc1ccc(Nc2cc3c(cn2)c(C)nn3Cc2cccnc2N(C)S(C)(=O)=O)cc1", "note": "[Example 72]", "IC50": "> 1000"}, {"smiles": "CN(c1ncccc1Cn1ccc2cnc(Nc3ccc4c(c3)C(=O)NC4=O)nc21)S(C)(=O)=O", "note": "[Example 74]", "IC50": "> 1000"}, {"smiles": "O=C1CCc2cc(Nc3ncc4ccn(Cc5ccccc5OC(F)(F)F)c4n3)ccc2N1", "note": "[Example 83]", "IC50": "< 20"}, {"smiles": "CC(=O)Nc1cccc(Nc2cc3c(cn2)c(C)nn3S(=O)(=O)c2ccccc2OC(F)(F)F)c1", "note": "[Example 88]", "IC50": "> 1000"}, {"smiles": "O=S(=O)(c1ccccc1OC(F)(F)F)n1ncc2cnc(Nc3ccc4ncsc4c3)cc21", "note": "[Example 89]", "IC50": "> 1000"}, {"smiles": "CC(=O)Nc1cccc(Oc2ncc3ccn(Cc4cccnc4N(C)S(C)(=O)=O)c3n2)c1", "note": "[Example 124]", "IC50": "> 1000"}, {"smiles": "CNc1ccc(Nc2ncc3ccn(Cc4cccnc4N(C)S(C)(=O)=O)c3n2)cc1", "note": "[Example 156]", "IC50": "< 20"}, {"smiles": "O=C1CCc2cc(Nc3cc4c(cn3)cnn4S(=O)(=O)c3cccc4cccnc34)ccc2N1", "note": "[Example 187]", "IC50": "< 20"}, {"smiles": "CN(c1ccccc1Cn1ncc2cnc(Nc3ccc(N4CCNCC4)cc3)cc21)S(C)(=O)=O", "note": "[Example 222]", "IC50": "< 20"}, {"smiles": "Cn1cnc(S(=O)(=O)n2ccc3cnc(Nc4ccc(N5CCNCC5)cc4)nc32)c1", "note": "[Example 236]", "IC50": "> 1000"}, {"smiles": "O=S(=O)(C1CCCC1)n1ccc2cnc(Nc3ccc(N4CCNCC4)cc3)nc21", "note": "[Example 238]", "IC50": "> 1000"}, {"smiles": "CN(c1ccccc1Cn1ccc2cnc(Nc3ccc(N4CCNCC4)c(F)c3)cc21)S(C)(=O)=O", "note": "[Example 322]", "IC50": "< 20"}, {"smiles": "CC(C)C(=O)Nc1ccc(Nc2ncc3ccn(S(=O)(=O)c4cccc5cccnc45)c3n2)cc1", "note": "[Example 324]", "IC50": "< 20"}, {"smiles": "CN(c1ccccc1Cn1ccc2cnc(Nc3ccc(N4CCNCC4)cc3)cc21)S(C)(=O)=O", "note": "[Example 325]", "IC50": "< 20"}, {"smiles": "O=S(=O)(c1cccc2cccnc12)n1ncc2cnc(Nc3ccc(N4CCN(CCO)CC4)cc3)cc21", "note": "[Example 351]", "IC50": "< 20"}, {"smiles": "O=C(C1CC1)N1CCN(c2ccc(Nc3cc4c(cn3)cnn4S(=O)(=O)c3cccc4cccnc34)cc2)CC1", "note": "[Example 352]", "IC50": "< 20"}, {"smiles": "COc1cc(Nc2ncc3ccn(S(=O)(=O)c4cccc5cccnc45)c3n2)ccc1NC(=O)C1CCC1", "note": "[Example 373]", "IC50": "< 20"}, {"smiles": "COc1cc(Nc2ncc3ccn(S(=O)(=O)c4cccc5cccnc45)c3n2)ccc1NC(=O)C1CC1", "note": "[Example 376]", "IC50": "< 20"}, {"smiles": "CN(c1ncccc1CN1C(=O)C(C)(C)c2cnc(Nc3ccc(N4CCNCC4)cc3)nc21)S(C)(=O)=O", "note": "[Example 380]", "IC50": "> 1000"}, {"smiles": "CC1(C)CN(S(=O)(=O)c2cccc3cccnc23)c2nc(Nc3ccc(N4CCNCC4)cc3)ncc21", "note": "[Example 403]", "IC50": "< 20"}, {"smiles": "O=S(=O)(c1cccc2cccnc12)n1ncc2cnc(Nc3ccc(N4CCOCC4)cc3)nc21", "note": "[Example 409]", "IC50": "< 20"}, {"smiles": "O=S(=O)(c1cccc2cccnc12)n1ccc2cnc(Nc3ccc(N4CCCC(CO)C4)cc3)nc21", "note": "(centres unmarked) [Example 425]", "IC50": "< 20"}, {"smiles": "CN(c1ccccc1Cn1ccc2cnc(Nc3ccc(N4CCN5C(=O)CCC5C4)cc3)nc21)S(C)(=O)=O", "note": "(centres unmarked) [Example 436]", "IC50": "< 20"}, {"smiles": "CN(c1ccccc1Cn1ccc2cnc(Nc3ccc(N4CCNCC4)c(F)c3)nc21)S(C)(=O)=O", "note": "[Example 438]", "IC50": "< 20"}, {"smiles": "COc1cc(Nc2ncc3ccn(S(=O)(=O)c4cccc5cccnc45)c3n2)ccc1N1CC2CC1CN2C", "note": "(centres unmarked) [Example 439]", "IC50": "< 20"}, {"smiles": "CN(c1ccccc1Cn1ccc2cnc(Nc3ccc(NC(=O)C4CC4)cc3)nc21)S(C)(=O)=O", "note": "[Example 450]", "IC50": "< 20"}, {"smiles": "C[C@@H]1CN(c2ccc(Nc3ncc4c(n3)N(S(=O)(=O)c3cccc5cccnc35)CC4(C)C)cc2)CCN1", "note": "[Example 470, (R)-5,5-dimethyl-N-(4-(3-methylpiperazin-1-yl)phenyl)-7-(quinolin-8-ylsulfonyl)-6,7-dihydro-5H-pyrrolo[2,3-d]pyrimidin-2-amine]", "IC50": "< 20"}, {"smiles": "CNC(=O)Cc1ccccc1Cn1ccc2cnc(Nc3ccc(N4CCN(C)CC4)cc3)nc21", "note": "[Example 474]", "IC50": "> 1000"}, {"smiles": "CC(C)N1CCN(c2ccc(Nc3ncc4ccn(Cc5ccccc5N(C)S(C)(=O)=O)c4n3)cc2)CC1", "note": "[Example 484]", "IC50": "< 20"}, {"smiles": "COc1cc(Nc2cc3c(ccn3S(=O)(=O)c3ccccc3C#N)cn2)ccc1N1CCN(C)CC1", "note": "[Example 492]", "IC50": "< 20"}, {"smiles": "C[C@H]1CN(C)CCN1c1ccc(Nc2ncc3ccn(Cc4ccccc4N(C)S(C)(=O)=O)c3n2)cc1", "note": "[Example 495]", "IC50": "< 20"}, {"smiles": "CN1CCN(c2ccc(Nc3ncc4c(n3)N(S(=O)(=O)c3cccc5cccnc35)CC43CC3)cc2)CC1", "note": "[Example 499]", "IC50": "< 20"}, {"smiles": "CN1CCCN(c2ccc(Nc3cc4c(ccn4S(=O)(=O)c4ccccc4C#N)cn3)cc2)CC1", "note": "[Example 505]", "IC50": "< 20"}, {"smiles": "CC1CN(c2ccc(Nc3ncc4ccn(Cc5ccccc5N(C)S(C)(=O)=O)c4n3)cc2)CC(C)N1", "note": "(centres unmarked) [Example 523]", "IC50": "< 20"}, {"smiles": "CC1CN(c2ccc(Nc3cc4c(ccn4S(=O)(=O)c4ccccc4C#N)cn3)cc2)CC(C)N1", "note": "(centres unmarked) [Example 529]", "IC50": "< 20"}]}]}
